We go through 17 compounds from patent US20230416205A1, “COMPOUNDS, COMPOSITIONS, AND METHODS” (Denali Therapeutics Inc, priority 2020, published 2023).

Where two headings read alike, the source gives them in different places.

The subject of this experiment is NLRP3. Description: IL-1β secretion assay in PMA-differentiated, LPS/nigericin-stimulated THP-1 cells (384-well, ELISA read-out). It is filed as cell-based, human. As for the experimental part:
Compounds as provided herein were tested in the following assay. Cell culture medium employed contained RPMI 1640 medium (89%), FBS (10%), Pen/Strep (1%), and 2-mercaptoethanol (0.05 mM). Freezing medium was made up of 90% FBS and 10% DMSO. THP-1 cells were removed from the liquid nitrogen and placed into a 37° C. water bath to thaw, until signs of ice dissipated. The cells were then added to 9 mL of warm cell culture medium and centrifuged for 5 minutes at 1000 rpm. The supernatant was discarded, and the cells were resuspended in new cell culture medium. THP-1 cells were then split and cultured in the cell culture medium, being passaged every 2-3 days with the cell density will be maintained between 5×10^5 and 1.5×10^6 viable cells/mL.
To freeze, cells were resuspended with fresh freezing medium, adjusting the cell density to 5×10^6 cells/mL. The cell suspension was partitioned into 1 mL aliquots per vial, and the vials were transferred to a −80° C. freezer. After one day at −80° C., the cell vials were transferred to liquid nitrogen freezer for storage.
PMA was dissolved in DMSO to make a stock solution at 5 mg/mL and stored in 10 μl aliquots at −20° C. for single use. PMA is added to normal growth medium. LPS was diluted with 1 mL of water solution to provide a 1 mg/mL stock solution and stored in 15 μl aliquots at −20° C. for single use. Nigericin is diluted in ice cold 100% ethanol to 5 mg/mL (6.7 mM) and stored in 75 μL aliquots at −20° C. for single use. Serum-free media contains RPMI 1640 medium (99%), Pen/Strep (1%), and 2-mercaptoethanol (0.05 mM). The two control conditions used to qualify and normalize test compound dose-response curves were as follows: High Control=25 ng/mL LPS, 5 μM Nigericin, 0.5% DMSO, Low Control=25 ng/mL, LPS, 0.5% DMSO.
THP-1 cells were diluted to provide a suspension at a concentration of 1.0×10^6 cells/mL with the total volume of suspension required to enable the desired number of assay plates. The growth media was supplemented with PMA (5 ng/mL final concentration) and the cells were incubated at 37° C. under a humidified atmosphere of 5% CO2 for 40 h.
All media was carefully aspirated from each culture flask. The cells were washed carefully with 1×DPBS. The cells were then briefly digested with trypsin LE for 5 minutes at 23° C., and immediately resuspended in cell growth media. After resuspension, the cells were centrifuged at 1000 rpm for 3 minutes and the supernatant was discarded. The cells were resuspended in DPBS and once again centrifuged at 1000 rpm for 5 minutes. The supernatant was discarded and the cell pellet was resuspended in serum-free media supplemented with LPS (25 ng/mL final concentration) to enable the distribution of 30K THP-1 cells within 45 μL of media into each well of 384-well PDL-coated plates. The 384-well plates were then incubated at 37° C. under a humidified atmosphere of 5% CO2 for 2 h. Following this period, test compounds were dispensed by Tecan across the desired concentration range with all wells normalized to a final 0.5% DMSO concentration. The plates were then incubated at 37° C. under a humidified atmosphere of 5% CO2 for 1 h. Following this period, 5 μL of the […] was added to each of the appropriate wells and plates were centrifuged at 1000 rpm for 30 seconds. The plates were the immediately reintroduced to the incubator at 37° C. under a humidified atmosphere of 5% CO2 for 2 h. After this time, 35 μL/well of supernatant was collected and transferred into v-bottom plate and centrifuged at 1000 rpm for 1 minute. These supernatant aliquots were analyzed using an IL-Iβ detection kit as described below. If needed, the test samples could be snap frozen and stored at −80° C. until analyzed.
To prepare each ELISA plate, capture antibody (mAb Mt175) was diluted with PBS to a final concentration of 2 μg/mL and then 20 μL of this solution was added to each well of the ELISA plate. Each plate was allowed to incubate overnight at 4° C.
Background: ELISA stands for enzyme-linked immunosorbent assay.

The mark [1] stands for this setting: IL-1β secretion, PMA-differentiated THP-1 cells, LPS then nigericin stimulation, ELISA read at 450 nm, read-out: Activity.
Setting [2] is: Table 4, IL-1β secretion, LPS/nigericin-stimulated THP-1 cells, read-out: IC50.
The mark [3] stands for this setting: Homo sapiens, THP-1, IL-1β secretion, PMA-differentiated THP-1 cells, LPS then nigericin stimulation, ELISA read at 450 nm, read-out: Activity.
The mark [4] stands for this setting: Homo sapiens, THP-1, Table 4, IL-1β secretion, LPS/nigericin-stimulated THP-1 cells, read-out: IC50.

Regarding `O=C(CN1C[C@@]2(C[C@@H]2F)c2cc(C(F)(F)F)ccc2C1=O)Nc1ncc(Cl)cn1` (single isomer, unassigned) [Example 239, N-(5-chloropyrimidin-2-yl)-2-[(2′s,4r)-2′-fluoro-1-oxo-6-(trifluoromethyl)spiro[3H-isoquinoline-4,1′-cyclopropane]-2-yl]acetamide], the IC50 is below 10000 nM under setting [1] and 37 nM under setting [2].
Take `O=C(CN1C[C@@]2(C[C@@H]2F)c2cc(C(F)(F)F)ccc2C1=O)Nc1ncccn1` (single isomer, unassigned) [Example 240, 2-[(2′s,4r)-2′-fluoro-1-oxo-6-(trifluoromethyl)spiro[3H-isoquinoline-4,1′-cyclopropane]-2-yl]-N-pyrimidin-2-ylacetamide]: the IC50 by setting is: under setting [3], below 10000 nM; under setting [2], 1220 nM.
In the case of `O=C(CN1C[C@@]2(C[C@@H]2F)c2cc(C(F)(F)F)ccc2C1=O)Nc1ncccn1` (single isomer, unassigned) [Example 241, 2-[(2′s,4r)-2′-fluoro-1-oxo-6-(trifluoromethyl)spiro[3H-isoquinoline-4,1′-cyclopropane]-2-yl]-N-pyrimidin-2-ylacetamide], the IC50 under setting [1] was below 10000 nM and the IC50 under setting [2] is 134 nM.
`O=C(CN1C[C@@]2(C[C@@H]2F)c2cc(C(F)(F)F)ccc2C1=O)Nc1ncc(C(F)(F)F)cn1` (single isomer, unassigned) [Example 242, 2-[(2′s,4r)-2′-fluoro-1-oxo-6-(trifluoromethyl)spiro[3H-isoquinoline-4,1′-cyclopropane]-2-yl]-N-[5-(trifluoromethyl)pyrimidin-2-yl]acetamide]: the IC50 was below 10000 nM under setting [3] and 1290 nM under setting [2].
Turning to `O=C(CN1C[C@@]2(C[C@@H]2F)c2cc(C(F)(F)F)ccc2C1=O)Nc1ncc(C(F)(F)F)cn1` (single isomer, unassigned) [Example 243, 2-[(2′s,4r)-2′-fluoro-1-oxo-6-(trifluoromethyl)spiro[3H-isoquinoline-4,1′-cyclopropane]-2-yl]-N-[5-(trifluoromethyl)pyrimidin-2-yl]acetamide], the IC50 reads like this: under setting [1], below 10000 nM; under setting [2], 95 nM.
As to `Cc1cnc(NC(=O)CN2C[C@@]3(C[C@@H]3F)c3cc(C(F)(F)F)ccc3C2=O)nc1` (single isomer, unassigned) [Example 244, 2-[(2′s,4r)-2′-fluoro-1-oxo-6-(trifluoromethyl)spiro[3H-isoquinoline-4,1′-cyclopropane]-2-yl]-N-(5-methylpyrimidin-2-yl)acetamide], the IC50 runs as follows: under setting [3], below 10000 nM; under setting [2], 75 nM.
`Cc1cnc(NC(=O)CN2C[C@@]3(C[C@@H]3F)c3cc(C(F)(F)F)ccc3C2=O)nc1` (single isomer, unassigned) [Example 245, 2-[(2′s,4r)-2′-fluoro-1-oxo-6-(trifluoromethyl)spiro[3H-isoquinoline-4,1′-cyclopropane]-2-yl]-N-(5-methylpyrimidin-2-yl)acetamide]: the IC50 reads like this: under setting [1], below 10000 nM; under setting [2], 938 nM.
In the case of `O=C(CN1CC2(CC2)c2cc([C@@]3(F)C[C@@H]3F)ccc2C1=O)Nc1ncc(F)cn1` (single isomer, unassigned) [Example 251, 2-[6-[(1r,2r)-1,2-difluorocyclopropyl]-1-oxospiro[3H-isoquinoline-4,1′-cyclopropane]-2-yl]-N-(5-fluoropyrimidin-2-yl)acetamide], the IC50 was below 10000 nM under setting [3] and 550 nM under setting [4].
Turning to `O=C(CN1CC2(CC2)c2cc([C@@]3(F)C[C@@H]3F)ccc2C1=O)Nc1ncc(F)cn1` (single isomer, unassigned) [Example 252, 2-[6-[(1r,2r)-1,2-difluorocyclopropyl]-1-oxospiro[3H-isoquinoline-4,1′-cyclopropane]-2-yl]-N-(5-fluoropyrimidin-2-yl)acetamide], the IC50 is below 10000 nM under setting [1] and 454 nM under setting [2].
As to `O=C(CN1CC2(CC2)c2cc([C@@]3(F)C[C@H]3F)ccc2C1=O)Nc1ncc(F)cn1` (single isomer, unassigned) [Example 253, 2-[6-[(1r,2s)-1,2-difluorocyclopropyl]-1-oxospiro[3H-isoquinoline-4,1′-cyclopropane]-2-yl]-N-(5-fluoropyrimidin-2-yl)acetamide], the IC50 under setting [3] was below 10000 nM and the IC50 under setting [4] was 597 nM.
Consider `O=C(CN1CC2(CC2)c2cc([C@@]3(F)C[C@H]3F)ccc2C1=O)Nc1ncc(F)cn1` (single isomer, unassigned) [Example 254, 2-[6-[(1r,2s)-1,2-difluorocyclopropyl]-1-oxospiro[3H-isoquinoline-4,1′-cyclopropane]-2-yl]-N-(5-fluoropyrimidin-2-yl)acetamide], for which the IC50 is, setting by setting: under setting [1], below 10000 nM; under setting [2], 434 nM.
For the compound `C[C@@H]1[C@H](F)[C@]12CN(CC(=O)Nc1ncc(F)cn1)C(=O)c1ccc(Br)cc12` (single isomer, unassigned) [Example 277, 2-[(2′s,3′s,4r)-6-bromo-2′-fluoro-3′-methyl-1-oxospiro[3H-isoquinoline-4,1′-cyclopropane]-2-yl]-N-(5-fluoropyrimidin-2-yl)acetamide], the IC50 was below 10000 nM under setting [3] and 21 nM under setting [2].
For the compound `C[C@@H]1[C@H](F)[C@]12CN(CC(=O)Nc1ncc(F)cn1)C(=O)c1ccc(Br)cc12` (single isomer, unassigned) [Example 278, 2-[(2′s,3′s,4r)-6-bromo-2′-fluoro-3′-methyl-1-oxospiro[3H-isoquinoline-4,1′-cyclopropane]-2-yl]-N-(5-fluoropyrimidin-2-yl)acetamide], the IC50 runs as follows: under setting [1], below 10000 nM; under setting [2], 1790 nM.
For the compound `C[C@H]1C[C@]12CN(CC(=O)Nc1ncc(F)cn1)C(=O)c1ccc(Br)cc12` (single isomer, unassigned) [Example 279, 2-[(2′s,4s)-6-bromo-2′-methyl-1-oxospiro[3H-isoquinoline-4,1′-cyclopropane]-2-yl]-N-(5-fluoropyrimidin-2-yl)acetamide], the IC50 is, setting by setting: under setting [3], above 15000 nM; under setting [2], 22400 nM.
For `C[C@H]1C[C@]12CN(CC(=O)Nc1ncc(F)cn1)C(=O)c1ccc(Br)cc12` (single isomer, unassigned) [Example 280, 2-[(2′s,4s)-6-bromo-2′-methyl-1-oxospiro[3H-isoquinoline-4,1′-cyclopropane]-2-yl]-N-(5-fluoropyrimidin-2-yl)acetamide], the IC50 runs as follows: under setting [1], below 10000 nM; under setting [2], 2370 nM.
For the compound `C[C@H]1C[C@@]12CN(CC(=O)Nc1ncc(F)cn1)C(=O)c1ccc(Br)cc12` (single isomer, unassigned) [Example 281, 2-[(2′s,4r)-6-bromo-2′-methyl-1-oxospiro[3H-isoquinoline-4,1′-cyclopropane]-2-yl]-N-(5-fluoropyrimidin-2-yl)acetamide], the IC50 under setting [3] is below 10000 nM and the IC50 under setting [2] worked out at 108 nM.
`C[C@H]1C[C@@]12CN(CC(=O)Nc1ncc(F)cn1)C(=O)c1ccc(Br)cc12` (single isomer, unassigned) [Example 282, 2-[(2′s,4r)-6-bromo-2′-methyl-1-oxospiro[3H-isoquinoline-4,1′-cyclopropane]-2-yl]-N-(5-fluoropyrimidin-2-yl)acetamide]: the IC50 is below 10000 nM under setting [1] and 1050 nM under setting [2].
